In assay [1] the test system is Staphylococcus aureus. Put plainly: Induction of cellular content release in methicillin-resistant Staphylococcus aureus assessed as DNA content by measuring optical density at 260 nm at MIC after 240 mins by UV-visible spectrophotometric analysis. The format is functional.
The test system of assay [2] is Staphylococcus aureus. Put plainly: Antibacterial activity against methicillin-resistant Staphylococcus aureus assessed as zone of inhibition at 400 ng/mL after 24 hrs by agar disc diffusion method. It counts as functional. The settings on record: read-out: IZ.
The test system of assay [3] is Staphylococcus aureus. Put plainly: Antibiofilm activity against methicillin-resistant Staphylococcus aureus assessed as optical density at 492 nm at 1 to 2 times MIC after 24 hrs by crystal violet staining-based UV-visible spectrophotometric analysis. The format is functional.
Assay [4] concerns Staphylococcus aureus. In words: Induction of pore formation in methicillin-resistant Staphylococcus aureus cell membrane assessed as increase in ferricyanide mediated cellular leakage after 2 hrs by DCPIP dye-based cyclic voltammetric analysis. It counts as functional, organism-based.
Assay [5] deals with Staphylococcus aureus. In words: Induction of pore formation in methicillin-resistant Staphylococcus aureus cell membrane assessed as increase in ferricyanide mediated potassium efflux after 2 hrs by DCPIP dye-based cyclic voltammetric analysis. It counts as functional, organism-based.
Assay [6] deals with Staphylococcus aureus. Put plainly: Antibiofilm activity against methicillin-resistant Staphylococcus aureus at MIC after 24 hrs by crystal violet staining-based UV-visible spectrophotometric analysis. The format is functional, organism-based.
Assay [7] relates to Staphylococcus epidermidis. Put plainly: Antibacterial activity against methicillin-resistant Staphylococcus epidermidis assessed as zone of inhibition at 20 ug/mL after 24 hrs by agar disc diffusion method. It counts as functional. The settings on record: read-out: IZ. On the technique in general: A growth-free zone around the sample is the usual read-out of agar diffusion tests.

In assay [8] the test system is Staphylococcus aureus. Put plainly: Antibacterial activity against methicillin-resistant Staphylococcus aureus assessed as zone of inhibition at 50 ug/mL after 24 hrs by agar disc diffusion method. The format is functional. The settings on record: read-out: IZ.
Assay [9] relates to Staphylococcus epidermidis. Put plainly: Antibacterial activity against methicillin-resistant Staphylococcus epidermidis after overnight incubation by micro broth dilution analysis. The format is functional. In general terms: In broth dilution the organism is exposed to a series of concentrations in liquid medium.
The test system of assay [10] is Staphylococcus aureus. In words: Antibacterial activity against methicillin-resistant Staphylococcus aureus assessed as zone of inhibition at 800 ng/mL after 24 hrs by agar disc diffusion method. It counts as functional. The settings on record: read-out: IZ.
Assay [11] deals with Staphylococcus aureus. In words: Antibacterial activity against methicillin-resistant Staphylococcus aureus after overnight incubation by micro broth dilution analysis. It counts as functional.
Assay [12] concerns Staphylococcus aureus. Put plainly: Antibacterial activity against methicillin-resistant Staphylococcus aureus assessed as zone of inhibition at 200 ng/mL after 24 hrs by agar disc diffusion method. The format is functional. The settings on record: read-out: IZ.
The test system of assay [13] is Staphylococcus aureus. Put plainly: Induction of pore formation in methicillin-resistant Staphylococcus aureus cell membrane assessed as increase in ferricyanide mediated DNA damage after 2 hrs by DCPIP dye-based cyclic voltammetric analysis. It counts as functional, organism-based.
Assay [14] deals with Staphylococcus aureus. Put plainly: Antibiofilm activity against methicillin-resistant Staphylococcus aureus planktonic biofilm assessed as optical density at 492 nm at MIC after 24 hrs by crystal violet staining-based UV-visible spectrophotometric analysis. It counts as functional.
Assay [15] relates to Staphylococcus haemolyticus. In words: Antibacterial activity against methicillin-resistant Staphylococcus haemolyticus after overnight incubation by micro broth dilution analysis. It counts as functional.
Assay [16] has as its system Staphylococcus haemolyticus. Put plainly: Antibacterial activity against methicillin-resistant Staphylococcus haemolyticus assessed as zone of inhibition at 50 ug/mL after 24 hrs by agar disc diffusion method. It counts as functional. The settings on record: read-out: IZ.
For assay [17], the system named is Staphylococcus aureus. In words: Antibacterial activity against methicillin-resistant Staphylococcus aureus assessed as zone of inhibition at 30 ug/mL after 24 hrs by agar disc diffusion method. The format is functional. The settings on record: read-out: IZ.
For assay [18], the system named is Staphylococcus aureus. In words: Antibiofilm activity against methicillin-resistant Staphylococcus aureus at 2 times MIC after 24 hrs by crystal violet staining-based UV-visible spectrophotometric analysis. It counts as functional, organism-based.
Assay [19] deals with Staphylococcus epidermidis. In words: Antibacterial activity against methicillin-resistant Staphylococcus epidermidis assessed as zone of inhibition at 30 ug/mL after 24 hrs by agar disc diffusion method. It counts as functional. The settings on record: read-out: IZ.
Assay [20] concerns Staphylococcus haemolyticus. In words: Antibacterial activity against methicillin-resistant Staphylococcus haemolyticus assessed as zone of inhibition at 30 ug/mL after 24 hrs by agar disc diffusion method. Particulars: read-out: IZ. The format is functional.
For assay [21], the system named is Staphylococcus haemolyticus. In words: Antibacterial activity against methicillin-resistant Staphylococcus haemolyticus assessed as zone of inhibition at 800 ng/mL after 24 hrs by agar disc diffusion method. It counts as functional. Particulars: read-out: IZ.
In assay [22] the test system is Staphylococcus epidermidis. Put plainly: Antibacterial activity against methicillin-resistant Staphylococcus epidermidis assessed as zone of inhibition at 800 ng/mL after 24 hrs by agar disc diffusion method. The format is functional. Particulars: read-out: IZ.
Assay [23] deals with Staphylococcus epidermidis. In words: Antibacterial activity against methicillin-resistant Staphylococcus epidermidis assessed as zone of inhibition at 200 ng/mL after 24 hrs by agar disc diffusion method. It counts as functional. Particulars: read-out: IZ.
The subject of assay [24] is Staphylococcus haemolyticus. Put plainly: Antibacterial activity against methicillin-resistant Staphylococcus haemolyticus assessed as zone of inhibition at 400 ng/mL after 24 hrs by agar disc diffusion method. It counts as functional. Particulars: read-out: IZ.
Assay [25] concerns Staphylococcus epidermidis. Put plainly: Antibacterial activity against methicillin-resistant Staphylococcus epidermidis assessed as zone of inhibition at 400 ng/mL after 24 hrs by agar disc diffusion method. It counts as functional. The settings on record: read-out: IZ.
Assay [26] deals with Staphylococcus haemolyticus. Put plainly: Antibacterial activity against methicillin-resistant Staphylococcus haemolyticus assessed as zone of inhibition at 200 ng/mL after 24 hrs by agar disc diffusion method. It counts as functional. Particulars: read-out: IZ.

In brackets after ≈: the same amount, converted by molar mass. Activity calls are given as the source filed them. No cut-off for these calls is given here.

The MIC99 is the lowest concentration that inhibits either 99% of growth or 99% of the strains tested, depending on the study. As to `CS(=O)(=O)c1cccc(/C=C/S(=O)(=O)F)c1`, the OD with Staphylococcus aureus [1] was 1.86; with Staphylococcus aureus [3] it was 0.61; in the assay on Staphylococcus aureus [14], 0.612. Moreover, the zone of inhibition at 0.4 µg/mL in the assay on Staphylococcus aureus [2] came to 7.1 mm. The outcome with Staphylococcus aureus [4], in the assay with Staphylococcus aureus [5], in the assay on Staphylococcus aureus [6] and in the assay with Staphylococcus aureus [13] was Active. The zone of inhibition at 20 µg/mL in assay [7] was found to be 6.2 mm. The zone of inhibition at 50 µg/mL in the assay on Staphylococcus aureus [8] was determined as 10 mm; in assay [16], 6.3 mm. Besides, the MIC99 in assay [9] is 44.2 µg/mL (≈ 167 µM); against Staphylococcus aureus [11], 0.81 µg/mL (≈ 3.06 µM); in [15], 39.1 µg/mL (≈ 148 µM). The zone of inhibition at 0.8 µg/mL in the assay with Staphylococcus aureus [10] was found to be 10.2 mm. Also, the zone of inhibition at 0.2 µg/mL in the assay with Staphylococcus aureus [12] is 6.4 mm.
As to `CCn1cc(C(=O)O)c(=O)c2cc(F)c(N3CCNCC3)cc21` [NORFLOXACIN], the zone of inhibition at 30 µg/mL stood at 10 mm in the assay on Staphylococcus aureus [17], 9.07 mm in [19] and 12.7 mm in [20]. The result in the assay on Staphylococcus aureus [18] was Active. For the same molecule, the MIC99 in assay [9] came to 0.73 µg/mL (≈ 2.29 µM); against Staphylococcus aureus [11], 0.61 µg/mL (≈ 1.91 µM); in assay [15], 0.58 µg/mL (≈ 1.82 µM). Besides, the OD in the assay on Staphylococcus aureus [14] amounted to 0.695.
Regarding `N#Cc1ccc(/C=C/S(=O)(=O)F)cc1`, the zone of inhibition at 0.8 µg/mL in [21] was 6.2 mm; in assay [22], 7.6 mm; in the assay with Staphylococcus aureus [10], 8.5 mm. The figures for the OD in the assay on Staphylococcus aureus [1], with Staphylococcus aureus [3] and in the assay on Staphylococcus aureus [14] were 1.42, 0.68 and 0.685, respectively. Moreover, the values for the zone of inhibition at 0.4 µg/mL (in the assay with Staphylococcus aureus [2]; in assay [24]; in assay [25]) were 7.3 mm, 5.1 mm and 6.3 mm, respectively. Also, the result in the assay on Staphylococcus aureus [4], with Staphylococcus aureus [5], with Staphylococcus aureus [6] and in the assay with Staphylococcus aureus [13] was Active. In assay [7], the zone of inhibition at 20 µg/mL was found to be 7.5 mm. For the same molecule, the zone of inhibition at 50 µg/mL in the assay with Staphylococcus aureus [8] came out at 11.4 mm; in assay [16] it was 7.2 mm. Besides, the figures for the zone of inhibition at 0.2 µg/mL (in assay [23]; with Staphylococcus aureus [12]; in assay [26]) were 5.2 mm, 6.1 mm and 4.2 mm, respectively. For the same molecule, the figures for the MIC99 (in assay [9]; with Staphylococcus aureus [11]; in assay [15]) were 0.831 µg/mL (≈ 3.93 µM), 0.84 µg/mL (≈ 3.98 µM) and 0.847 µg/mL (≈ 4.01 µM), respectively.
As for `O=S(=O)(F)/C=C/c1ccc(Cl)cc1`, the values for the zone of inhibition at 0.8 µg/mL (in [21]; in [22]; in the assay with Staphylococcus aureus [10]) were 71 mm, 8.4 mm and 10 mm, respectively. Also, the OD with Staphylococcus aureus [1] is 1.28; in the assay on Staphylococcus aureus [3], 0.66; with Staphylococcus aureus [14], 0.66. For the same molecule, the zone of inhibition at 0.4 µg/mL worked out at 8.2 mm in the assay on Staphylococcus aureus [2], 5.1 mm in assay [24] and 7.2 mm in assay [25]. Also, the outcome with Staphylococcus aureus [4], in the assay with Staphylococcus aureus [5], in the assay with Staphylococcus aureus [6] and in the assay on Staphylococcus aureus [13] was Active. Further, in assay [7], the zone of inhibition at 20 µg/mL amounted to 10.3 mm. For the same molecule, the zone of inhibition at 50 µg/mL is 8.2 mm with Staphylococcus aureus [8] and 7.2 mm in assay [16]. The figures for the zone of inhibition at 0.2 µg/mL (in assay [23]; in the assay with Staphylococcus aureus [12]; in assay [26]) were 5.2 mm, 6.3 mm and 4.1 mm, respectively. For the same molecule, the MIC99 in assay [9] was 0.83 µg/mL (≈ 3.76 µM); against Staphylococcus aureus [11] it was 0.818 µg/mL (≈ 3.71 µM); in assay [15], 0.846 µg/mL (≈ 3.83 µM).
On to `NC[C@H]1O[C@H](O[C@H]2[C@H](O)[C@@H](O[C@H]3O[C@H](CO)[C@@H](O)[C@H](N)[C@H]3O)[C@H](N)C[C@@H]2N)[C@H](O)[C@@H](O)[C@@H]1O` [KANAMYCIN], for which the zone of inhibition at 30 µg/mL came out at 12 mm with Staphylococcus aureus [17], 8.3 mm in assay [19] and 4.81 mm in assay [20]. Moreover, the outcome in the assay with Staphylococcus aureus [18] was Active. Moreover, the MIC99 in assay [9] came out at 30.1 µg/mL (≈ 62.2 µM); in the assay on Staphylococcus aureus [11], 9.12 µg/mL (≈ 18.8 µM); in assay [15], 21.2 µg/mL (≈ 43.7 µM). For the same molecule, in the assay on Staphylococcus aureus [14], the OD came out at 0.715.

These data come from ChEMBL document CHEMBL4382233, “Discovery of novel arylethenesulfonyl fluorides as potential candidates against methicillin-resistant of Staphylococcus aureus (MRSA) for overcoming multidrug resistance of bacterial infections” (2019).
